Results published in patent US4990497A, “Antifungal antibiotics” (priority 1989, dated 1991).
Values after ≈ are worked out from the molar mass of the structure shown. “Also recorded” adds a separate entry of the source. Read-outs that look alike come from different tables or passages of the source.

How the values were obtained:
Cryptococcus neoformans [1] = assay: Antifungal MIC, serial agar dilution (Sabouraud dextrose agar), Cryptococcus neoformans; assay type: cell-based
Aspergillus fumigatus [2] = assay: Antifungal MIC, broth dilution (Sabouraud dextrose broth), Aspergillus fumigatus
Description: (§1) The minimum inhibitory concentrations (MICs) against various fungi were determined by serial agar and broth dilution methods using Sabouraud dextrose agar and broth. The inoculum size of the test organism was adjusted to 10^5 CFUs/ml (BU-3608) or 10^5 -10^9 CFUs/ml (BU-3608 B and C) in the agar dilution method, and 10^4 -10^5 CFUs/ml (BU-3608) or 10^4 -10^6 CFUs/ml (BU-3608 B and C) in the broth dilution method.
(§2) ^(1) Determined after incubation for 72 hours at 28° C.
(§3) ^(2) Inoculum size: 10^5 CFU/ml for agar dilution and 10^4
-10^5 CFU/ml for broth dilution.
(§4) ^(3) Values in parenthesis indicate partial inhibition.
(§5) *Determined after incubation for 48-72 hours at 28° C.
(§6) **Inoculum size : 10^4 -10^6 CFU/ml for broth dilution and
10^5 -10^9 CFU/ml for agar dilution.
(§7) Values in parenthesis indicate partial inhibition.

Aspergillus fumigatus [3] = assay: Antifungal MIC, serial agar dilution (Sabouraud dextrose agar), Aspergillus fumigatus; assay type: cell-based
[4] = test system: Trichophyton mentagrophytes; assay: Antifungal MIC, serial agar dilution (Sabouraud dextrose agar), Trichophyton mentagrophytes; assay type: cell-based
Piricularia oryzae = assay: microbe, parasite or virus in culture; assay type: cell-based
Sporothrix schenckii = assay: Antifungal MIC, serial agar dilution (Sabouraud dextrose agar), Sporothrix schenckii; assay type: cell-based
Candida albicans [5] = assay: Antifungal MIC, broth dilution (Sabouraud dextrose broth), Candida albicans
Description: as §1, §2, §3
-10^5 CFU/ml for broth dilution.
as §4, §5, §6
10^5 -10^9 CFU/ml for agar dilution.
as §7

[6] = test system: Trichophyton mentagrophytes; assay: Antifungal MIC, broth dilution (Sabouraud dextrose broth), Trichophyton mentagrophytes
Description: as §1, §2, §3
-10^5 CFU/ml for broth dilution.
as §4, §5, §6
10^5 -10^9 CFU/ml for agar dilution.
as §7

Fusarium moniliforme = assay: Antifungal MIC, serial agar dilution (Sabouraud dextrose agar), Fusarium moniliforme; assay type: cell-based; details: Fusarium verticillioides
Candida albicans [7] = assay: Antifungal MIC, serial agar dilution (Sabouraud dextrose agar), Candida albicans; assay type: cell-based
Acute toxicity in mice = assay type: in vivo
Description: The acute toxicity of BU-3608 was determined in mice after single intravenous and intramuscular administrations.

in vitro [8] = details: dog, mdck
[9] = test system: Cryptococcus neoformans IAM 4514; assay: In vivo antifungal activity, Cryptococcus neoformans intravenous infection in mice; details: IAM4514, in Mus musculus, im, 480 h, read-out: PD50
Description: In vivo activities of BU-3608, BU-3608 B, and BU-3608 C were tested against Candida albicans, Aspergillus fumigatus, and Cryptococcus neoformans infections in mice. Test organisms were cultured for 18 hours at 28° C. in YGP medium (yeast extract, glucose, peptone, K2 HPO4, MgSO4) and then suspended in saline. Male ICR mice weighing 20 to 24 g were infected intravenously with about 20 times (BU-3608) or 10 times (BU-3608 B and C) the median lethal dose of the test fungi. The antibiotics at various dose levels were administered to groups of 5 mice each either intravenously just after the fungal infection or intramuscularly twice a day on days 0 and 1. The dose that protects 50% of the animals from infection (PD50, mg/kg) was calculated from survival rates recorded on the 20th day after the fungal challenge.
**Compounds were administered im b.i.d. on days 0 and 1.

Blastomyces dermatitidis = assay: Antifungal MIC, serial agar dilution (Sabouraud dextrose agar), Blastomyces dermatitidis; details: 72 h
Description: as §1, §2

Solubility = assay type: physicochemical; details: free form
in vitro [10] = details: monkey, vero cells
Candida albicans A9540 = assay: In vivo antifungal activity, Candida albicans intravenous infection in mice; parameters: species or system mice (male ICR); details: for ED50: Candida albicans, read-out: PD50; for Number of survivors/tested: iv just after challenge
Description: The methyl and ethyl esters of BU-3608 were also evaluated against C. albicans A9540 infections in mice using the protocol described above. […] It is postulated that these esters are hydrolyzed in vivo to provide the active parent compound.

Mucor spinosus = assay: Antifungal MIC, serial agar dilution (Sabouraud dextrose agar), Mucor spinosus; details: IFO5317, 72 h
Description: as §1, §2

Petriellidium boydii = assay: Antifungal MIC, serial agar dilution (Sabouraud dextrose agar), Petriellidium boydii; details: Scedosporium boydii, IFO8073, 72 h
Description: as §1, §2

Cryptococcus neoformans [11] = assay: Antifungal MIC, broth dilution (Sabouraud dextrose broth), Cryptococcus neoformans
Description: as §1, §2, §3
-10^5 CFU/ml for broth dilution.
as §4, §5, §6
10^5 -10^9 CFU/ml for agar dilution.
as §7

influenza virus A = assay: Cytopathic effect (CPE) reduction assay, influenza virus A in MDCK cells; assay type: cell-based; details: unidentified influenza virus, 72 h, read-out: ID50 (CPE reduction)
Aspergillus flavus = assay: Antifungal MIC, serial agar dilution (Sabouraud dextrose agar), Aspergillus flavus; details: 72 h
Description: as §1, §2

[12] = Cryptococcus neoformans D49, 48-72 h at 28° C., 10^5-10^9 CFU/ml
[13] = Cryptococcus neoformans IAM4514, 48-72 h at 28° C., 10^5-10^9 CFU/ml
[14] = IAM2034, read-out: MIC, partial inhibition (value in parenthesis)
[15] = Aspergillus fumigatus IAM2034, 48-72 h at 28° C., 10^5-10^9 CFU/ml
[16] = Aspergillus fumigatus IAM2530, 48-72 h at 28° C., 10^5-10^9 CFU/ml
[17] = Trichophyton mentagrophytes #4329, 48-72 h at 28° C., 10^5-10^9 CFU/ml
[18] = Trichophyton mentagrophytes D155, 48-72 h at 28° C., 10^5-10^9 CFU/ml
[19] = Sporothrix schenckii IFO8158, 48-72 h at 28° C., 10^5-10^9 CFU/ml
[20] = read-out: MIC, partial inhibition (value in parenthesis)
[21] = Fusarium moniliforme A2284, 48-72 h at 28° C., 10^5-10^9 CFU/ml
[22] = Candida albicans A9540, 48-72 h at 28° C., 10^5-10^9 CFU/ml
[23] = Candida albicans IAM4888, 48-72 h at 28° C., 10^5-10^9 CFU/ml
[24] = dose 3.1 mg/kg/inj., day 20, challenge 20x (BU-3608) or 10x (B, C) median lethal dose
[25] = dose 6.3 mg/kg/inj., day 20, challenge 20x (BU-3608) or 10x (B, C) median lethal dose
[26] = dose 12.5 mg/kg/inj., day 20, challenge 20x (BU-3608) or 10x (B, C) median lethal dose
[27] = dose 25 mg/kg/inj., day 20, challenge 20x (BU-3608) or 10x (B, C) median lethal dose
[28] = dose 50 mg/kg/inj., day 20, challenge 20x (BU-3608) or 10x (B, C) median lethal dose

## COc1cc(O)c2c(c1)C(=O)c1c(cc3c(c1O)-c1c(cc(C)c(C(=O)N[C@H](C)C(=O)O)c1O)C(O[C@@H]1O[C@H](C)[C@H](N)[C@H](O[C@@H]4OC[C@@H](O)[C@H](O)[C@H]4O)[C@H]1O)C3O)C2=O (stereo partly shown)
Cryptococcus neoformans [1]; [12]
  MIC: 0.8 µg/mL (≈ 0.968 µM)
Cryptococcus neoformans [1]; [13]
  MIC: 0.8 µg/mL (≈ 0.968 µM)
Aspergillus fumigatus [2]; IAM2034
  MIC: 6.3 µg/mL (≈ 7.62 µM)
Aspergillus fumigatus [2]; [14]
  MIC: 3.1 µg/mL (≈ 3.75 µM)
Aspergillus fumigatus [3]; [15]
  MIC: 6.3 µg/mL (≈ 7.62 µM)
Aspergillus fumigatus [3]; [16]
  MIC: 3.1 µg/mL (≈ 3.75 µM)
[4]; [17]
  MIC: 6.3 µg/mL (≈ 7.62 µM)
[4]; [18]
  MIC: 3.1 µg/mL (≈ 3.75 µM)
Piricularia oryzae
  MIC: 3.1 µg/mL (≈ 3.75 µM)
Sporothrix schenckii; [19]
  MIC: 1.6 µg/mL (≈ 1.94 µM)
Candida albicans [5]
  MIC: 6.3 µg/mL (≈ 7.62 µM)
Candida albicans [5]; [20]
  MIC: 3.1 µg/mL (≈ 3.75 µM)
[6]
  MIC: 6.3 µg/mL (≈ 7.62 µM)
[6]; [20]
  MIC: 1.3 µg/mL (≈ 1.57 µM)
Fusarium moniliforme; [21]
  MIC: 6.3 µg/mL (≈ 7.62 µM)
Candida albicans [7]; [22]
  MIC: 6.3 µg/mL (≈ 7.62 µM)
Candida albicans [7]; [23]
  MIC: 6.3 µg/mL (≈ 7.62 µM)

## CN[C@@H]1[C@H](O[C@@H]2OC[C@@H](O)[C@H](O)[C@H]2O)[C@@H](O)[C@H](OC2c3cc(C)c(C(=O)N[C@H](C)C(=O)O)c(O)c3-c3c(cc4c(c3O)C(=O)c3cc(OC)cc(O)c3C4=O)C2O)O[C@@H]1C (stereo partly shown) [BU-3608]
Cryptococcus neoformans [1]; Cryptococcus neoformans D49, 72 h at 28° C., 10^5 CFU/ml
  MIC: 0.8 µg/mL (≈ 0.951 µM)
Cryptococcus neoformans [1]; Cryptococcus neoformans IAM4514, 72 h at 28° C., 10^5 CFU/ml
  MIC: 0.8 µg/mL (≈ 0.951 µM)
Aspergillus fumigatus [2]; IAM2034, 72 h
  MIC: 12.5 µg/mL (≈ 14.9 µM)
Aspergillus fumigatus [3]; Aspergillus fumigatus IAM2034, 72 h at 28° C., 10^5 CFU/ml
  MIC: 3.1 µg/mL (≈ 3.69 µM)
Aspergillus fumigatus [3]; Aspergillus fumigatus IAM2530, 72 h at 28° C., 10^5 CFU/ml
  MIC: 3.1 µg/mL (≈ 3.69 µM)
[4]; 72 h, Trichophyton mentagrophytes #4329, 72 h at 28° C., 10^5 CFU/ml
  MIC: 25 µg/mL (≈ 29.7 µM)
[4]; 72 h, Trichophyton mentagrophytes D155, 72 h at 28° C., 10^5 CFU/ml
  MIC: > 100 µg/mL
Acute toxicity in mice; mice, single im dose of 400 mg/kg
  sign of toxicity: no sign of toxicity
Acute toxicity in mice; mouse, in vivo, iv
  LD50: 140 mg/kg
Piricularia oryzae; 72 h
  MIC: 3.1 µg/mL (≈ 3.69 µM)
In vitro [8]
  CC50 at 72 h: > 100 µg/mL
[9]
  ED50: 3.5 mg/kg
Blastomyces dermatitidis
  MIC: 6.3 µg/mL (≈ 7.49 µM)
Solubility
  Solubility: Soluble in dimethyl sulfoxide, dimethyl formamide, acidic and alkaline water; also recorded: Slightly soluble in water, methanol, and ethanol; also recorded: Insoluble in ethyl acetate, chloroform, benzene, n-hexane, and petroleum ether
In vitro [10]
  CC50 at 72 h: > 100 µg/mL
Sporothrix schenckii; Sporothrix schenckii IFO8158, 72 h at 28° C., 10^5 CFU/ml
  MIC: 0.8 µg/mL (≈ 0.951 µM)
Candida albicans A9540; A9540, 480 h, iv just after fungal challenge, day 20, challenge 20x (BU-3608) or 10x (B, C) median lethal dose
  ED50: 7.2 mg/kg
Candida albicans A9540; dose 1.6 mg/kg/inj., day 20, challenge 20x median lethal dose
  Number of survivors/tested: 1/5
Candida albicans A9540; [24]
  Number of survivors/tested: 2/5
Candida albicans A9540; [25]
  Number of survivors/tested: 2/5
Candida albicans A9540; [26]
  Number of survivors/tested: 5/5
Candida albicans A9540; [27]
  Number of survivors/tested: 5/5
Candida albicans A9540; [28]
  Number of survivors/tested: 5/5
Mucor spinosus
  MIC: 50 µg/mL (≈ 59.5 µM)
Candida albicans [5]; 72 h
  MIC: 6.3 µg/mL (≈ 7.49 µM)
Petriellidium boydii
  MIC: 100 µg/mL (≈ 119 µM)
[6]; 72 h
  MIC: 25 µg/mL (≈ 29.7 µM)
[6]; 72 h, read-out: MIC, partial inhibition (value in parenthesis)
  MIC: 6.3 µg/mL (≈ 7.49 µM)
Cryptococcus neoformans [11]; IAM4514, 72 h
  MIC: 0.4 µg/mL (≈ 0.476 µM)
Influenza virus A
  IC50: 4.4 µg/mL (≈ 5.23 µM)
Fusarium moniliforme; Fusarium moniliforme A2284, 72 h at 28° C., 10^5 CFU/ml
  MIC: 3.1 µg/mL (≈ 3.69 µM)
Candida albicans [7]; Candida albicans A9540, 72 h at 28° C., 10^5 CFU/ml
  MIC: 25 µg/mL (≈ 29.7 µM)
Candida albicans [7]; Candida albicans IAM4888, 72 h at 28° C., 10^5 CFU/ml
  MIC: 25 µg/mL (≈ 29.7 µM)
Aspergillus flavus
  MIC: 1.6 µg/mL (≈ 1.9 µM)

## CN[C@@H]1[C@H](O)[C@@H](O)[C@H](OC2c3cc(C)c(C(=O)N[C@H](C)C(=O)O)c(O)c3-c3c(cc4c(c3O)C(=O)c3cc(OC)cc(O)c3C4=O)C2O)O[C@@H]1C (stereo partly shown) [BU-3608 B]
Cryptococcus neoformans [1]; [12]
  MIC: 0.8 µg/mL (≈ 1.13 µM)
Cryptococcus neoformans [1]; [13]
  MIC: 0.8 µg/mL (≈ 1.13 µM)
Aspergillus fumigatus [2]; IAM2034
  MIC: 50 µg/mL (≈ 70.6 µM)
Aspergillus fumigatus [2]; [14]
  MIC: 12.5 µg/mL (≈ 17.6 µM)
Aspergillus fumigatus [3]; [15]
  MIC: 6.3 µg/mL (≈ 8.89 µM)
Aspergillus fumigatus [3]; [16]
  MIC: 6.3 µg/mL (≈ 8.89 µM)
[4]; [17]
  MIC: 6.3 µg/mL (≈ 8.89 µM)
[4]; [18]
  MIC: 6.3 µg/mL (≈ 8.89 µM)
Piricularia oryzae; 48-72 h at 28° C., read-out: MIC
  MIC: 6.3 µg/mL (≈ 8.89 µM)
In vitro [8]
  CC50 at 72 h: > 100 µg/mL
[9]
  ED50: 11 mg/kg
Sporothrix schenckii; [19]
  MIC: 3.1 µg/mL (≈ 4.37 µM)
Candida albicans A9540; A9540, im, 480 h
  ED50: 22 mg/kg
Candida albicans A9540; A9540, iv, 480 h
  ED50: 11 mg/kg
Candida albicans A9540; [24]
  Number of survivors/tested: 0/5
Candida albicans A9540; [25]
  Number of survivors/tested: 0/5
Candida albicans A9540; [26]
  Number of survivors/tested: 3/5
Candida albicans A9540; [27]
  Number of survivors/tested: 3/5
Candida albicans A9540; [28]
  Number of survivors/tested: 4/5
Candida albicans [5]
  MIC: 3.1 µg/mL (≈ 4.37 µM)
Candida albicans [5]; [20]
  MIC: 3.1 µg/mL (≈ 4.37 µM)
[6]
  MIC: 6.3 µg/mL (≈ 8.89 µM)
[6]; [20]
  MIC: 3.1 µg/mL (≈ 4.37 µM)
Cryptococcus neoformans [11]; IAM4514
  MIC: 1.6 µg/mL (≈ 2.26 µM)
Influenza virus A
  IC50: 8.4 µg/mL (≈ 11.9 µM)
Fusarium moniliforme; [21]
  MIC: > 100 µg/mL
Candida albicans [7]; [22]
  MIC: 3.1 µg/mL (≈ 4.37 µM)
Candida albicans [7]; [23]
  MIC: 1.6 µg/mL (≈ 2.26 µM)
